Test system: colon microbiota of human origin
Assay: TIM-2 in vitro model of the proximal colon: short-chain fatty acids (SCFA) production
Assay type: cell-based
Settings: for Cumulative production of butyrate / Cumulative production of total short chain fatty acids (SCFA): mean of n = 2
Method: Crystalline lactulose was administered daily for 5 days to the TNO Intestinal Model (TIM-2), an in vitro model of the proximal colon. NaOH consumption, short-chain fatty acids (SCFA) production, ammonia production as well as relative abundance of microbiota were analyzed.
The substance administered in this study was lactulose crystals (S.C.M. Società Chimica Mugello S.r.l., Vicchio, Italy). Experiments without the addition of lactulose served as negative control.
The TNO Intestinal Model (TIM-2) is a dynamic in vitro model of the proximal colon. The TIM-2 system was inoculated with a highly metabolically active colon microbiota of human origin. In the system the following standardized conditions were simulated: body temperature; pH in the lumen of the proximal colon (pH 5.8); delivery of a substrate from the 'ileum' (SIEM; Standardized Ileum Efflux Medium); mixing and transport of the intestinal contents; anaerobiosis; absorption of water and absorption of fermentation products, metabolites and other low molecular weight compounds (via a semipermeable membrane inside the colon model).
SIEM simulates material passing the ileocecal valve in humans. It contained the major non-digestible carbohydrates (pectin, xylan, arabinogalactan, amylopectin, starch) found in a normal western diet as well as protein (bactopepton, casein), ox-bile, Tween 80 as well as vitamins and minerals. SIEM was added to the system at a speed of 2.5 mL/h and the speed of the dialysis liquid was 1.5 mL/min. During the experiment, the intestinal contents were mixed continuously by the peristaltic movements of the TIM-2 system. In order to simulate the transit of the chime from proximal to distal colon, 25 mL of the lumen was removed every 24 h and discarded.
Before performing each experiment, the system was inoculated with a standardized microbiota of human origin. This standardized microbiota was prepared using fecal donations from a group of 4 healthy volunteers (3 females, 1 male, age 38.8 ± 3.9 years; BMI (body mass index) 24.2 ± 1.5 kg/m^2). Individuals provided signed informed consent before participation, were non-smokers and had not used antibiotics, prebiotics, probiotics or laxatives within 1 month before the stool donation.
At the start of the adaptation period the microbiota was allowed to adapt to the model conditions and SIEM for 16 h. After the adaptation period the 120 h test period started in which lactulose was added to TIM-2 once daily.
Lactulose was added to the system at daily doses of 2 g, 3 g, 4 g, and 5 g lactulose. Each dose as well as the control experiment was studied in duplicate (n = 2). The test period of the TIM-2 experiments lasted 120 h (5 consecutive days).
Metabolites like the short-chain fatty acids (SCFA) and ammonia produced in TIM-2 were continuously removed from the lumen by a semipermeable membrane unit. This dialysate was collected at the start of the test period and after 24, 48, 72, 96, and 120 h.
The lumen and dialysate fractions of TIM-2 were analyzed using gas chromatography for SCFA (acetate, propionate and butyrate). Dialysate samples were directly used. Lumen samples were centrifuged (12,000 rpm at 4 °C for 10 min).

[1] = daily doses of 2 g, 3 g, 4 g, 5 g, 120 h test period, versus control
[2] = lactulose 2 g daily, 0 h (values at the start set to zero), control 0
[3] = lactulose 3 g daily, 0 h (values at the start set to zero), control 0
[4] = lactulose 4 g daily, 0 h (values at the start set to zero), control 0
[5] = lactulose 5 g daily, 0 h (values at the start set to zero), control 0

## OC[C@H]1O[C@@H](O[C@@H]2[C@@H](CO)OC(O)(CO)[C@H]2O)[C@H](O)[C@@H](O)[C@H]1O (mixture of isomers) [Lactulose, lactulose]
[1]
  SCFA production (in words): increased the levels
  levels of butyrate (in words): increased the levels
Daily doses of 2 g, 3 g, 4 g, 5 g, 120 h test period, versus control, listed as lactulose
  SCFA production (in words): higher SCFA production as compared to the control
[2]
  Cumulative production of butyrate: 0 mmol
  Cumulative production of total short chain fatty acids (SCFA): 0 mmol
Lactulose 2 g daily, 24 h, control 7
  Cumulative production of butyrate: 14 mmol
Lactulose 2 g daily, 24 h, control 62
  Cumulative production of total short chain fatty acids (SCFA): 85 mmol
Lactulose 2 g daily, 48 h, control 18
  Cumulative production of butyrate: 27 mmol
Lactulose 2 g daily, 48 h, control 129
  Cumulative production of total short chain fatty acids (SCFA): 163 mmol
Lactulose 2 g daily, 72 h, control 31
  Cumulative production of butyrate: 39 mmol
Lactulose 2 g daily, 72 h, control 194
  Cumulative production of total short chain fatty acids (SCFA): 234 mmol
Lactulose 2 g daily, 96 h, control 44
  Cumulative production of butyrate: 52 mmol
Lactulose 2 g daily, 96 h, control 257
  Cumulative production of total short chain fatty acids (SCFA): 318 mmol
Lactulose 2 g daily, 120 h, control 58
  Cumulative production of butyrate: 69 mmol
Lactulose 2 g daily, 120 h, control 320
  Cumulative production of total short chain fatty acids (SCFA): 403 mmol
[3]
  Cumulative production of butyrate: 0 mmol
  Cumulative production of total short chain fatty acids (SCFA): 0 mmol
Lactulose 3 g daily, 24 h, control 7
  Cumulative production of butyrate: 12 mmol
Lactulose 3 g daily, 24 h, control 62
  Cumulative production of total short chain fatty acids (SCFA): 85 mmol
Lactulose 3 g daily, 48 h, control 18
  Cumulative production of butyrate: 27 mmol
Lactulose 3 g daily, 48 h, control 129
  Cumulative production of total short chain fatty acids (SCFA): 175 mmol
Lactulose 3 g daily, 72 h, control 31
  Cumulative production of butyrate: 40 mmol
Lactulose 3 g daily, 72 h, control 194
  Cumulative production of total short chain fatty acids (SCFA): 256 mmol
Lactulose 3 g daily, 96 h, control 44
  Cumulative production of butyrate: 54 mmol
Lactulose 3 g daily, 96 h, control 257
  Cumulative production of total short chain fatty acids (SCFA): 340 mmol
Lactulose 3 g daily, 120 h, control 58
  Cumulative production of butyrate: 68 mmol
Lactulose 3 g daily, 120 h, control 320
  Cumulative production of total short chain fatty acids (SCFA): 427 mmol
[4]
  Cumulative production of butyrate: 0 mmol
  Cumulative production of total short chain fatty acids (SCFA): 0 mmol
Lactulose 4 g daily, 24 h, control 7
  Cumulative production of butyrate: 12 mmol
Lactulose 4 g daily, 24 h, control 62
  Cumulative production of total short chain fatty acids (SCFA): 97 mmol
Lactulose 4 g daily, 48 h, control 18
  Cumulative production of butyrate: 30 mmol
Lactulose 4 g daily, 48 h, control 129
  Cumulative production of total short chain fatty acids (SCFA): 216 mmol
Lactulose 4 g daily, 72 h, control 31
  Cumulative production of butyrate: 47 mmol
Lactulose 4 g daily, 72 h, control 194
  Cumulative production of total short chain fatty acids (SCFA): 310 mmol
Lactulose 4 g daily, 96 h, control 44
  Cumulative production of butyrate: 70 mmol
Lactulose 4 g daily, 96 h, control 257
  Cumulative production of total short chain fatty acids (SCFA): 405 mmol
Lactulose 4 g daily, 120 h, control 58
  Cumulative production of butyrate: 93 mmol
Lactulose 4 g daily, 120 h, control 320
  Cumulative production of total short chain fatty acids (SCFA): 500 mmol
[5]
  Cumulative production of butyrate: 0 mmol
  Cumulative production of total short chain fatty acids (SCFA): 0 mmol
Lactulose 5 g daily, 24 h, control 7
  Cumulative production of butyrate: 8 mmol
Lactulose 5 g daily, 24 h, control 62
  Cumulative production of total short chain fatty acids (SCFA): 84 mmol
Lactulose 5 g daily, 48 h, control 18
  Cumulative production of butyrate: 29 mmol
Lactulose 5 g daily, 48 h, control 129
  Cumulative production of total short chain fatty acids (SCFA): 214 mmol
Lactulose 5 g daily, 72 h, control 31
  Cumulative production of butyrate: 53 mmol
Lactulose 5 g daily, 72 h, control 194
  Cumulative production of total short chain fatty acids (SCFA): 309 mmol
Lactulose 5 g daily, 96 h, control 44
  Cumulative production of butyrate: 84 mmol
Lactulose 5 g daily, 96 h, control 257
  Cumulative production of total short chain fatty acids (SCFA): 430 mmol
Lactulose 5 g daily, 120 h, control 58
  Cumulative production of butyrate: 118 mmol
Lactulose 5 g daily, 120 h, control 320
  Cumulative production of total short chain fatty acids (SCFA): 520 mmol
